Reference: US12686673B2 (Blueprint Medicines Corporation, priority 2020, dated 2026)
Structures can show the parent of a compound that is named as a salt.

How the values were obtained:
Format in all cases: cell-based
[1] = biological target: EGFR(D770_N771insSVD) expressing Ba/F3 stable cell line (Homo sapiens, UniProt P00533, DUP768-770, cells depend on it); assay: Cellular proliferation (Alamar Blue) assay, EGFR D770_N771insSVD Ba/F3; conditions: 72 hr, read-out: D770 IC50
In short: (§1)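 Proliferation of mutant-dependent Ba/F3 lines is measured by Alamar Blue reduction over 3 hours, following a 72 hr incubation with test compound spanning 10-0.0005 μM final in threefold dilutions. Cells go in at 15,000 per well in RPMI containing 10% FBS the day before dosing.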

[2] = biological target: EGFR (A767_dupASV) expressing Ba/F3 stable cell line (Homo sapiens, UniProt P00533, DUP767-769, cells depend on it); assay: Cellular proliferation (Alamar Blue) assay, EGFR A767_dupASV Ba/F3; conditions: 72 hr, read-out: A767 IC50
Chain of EGFR (A767_dupASV) expressing Ba/F3 stable cell line (P00533 with tags, fused parts or gaps DUP767-769): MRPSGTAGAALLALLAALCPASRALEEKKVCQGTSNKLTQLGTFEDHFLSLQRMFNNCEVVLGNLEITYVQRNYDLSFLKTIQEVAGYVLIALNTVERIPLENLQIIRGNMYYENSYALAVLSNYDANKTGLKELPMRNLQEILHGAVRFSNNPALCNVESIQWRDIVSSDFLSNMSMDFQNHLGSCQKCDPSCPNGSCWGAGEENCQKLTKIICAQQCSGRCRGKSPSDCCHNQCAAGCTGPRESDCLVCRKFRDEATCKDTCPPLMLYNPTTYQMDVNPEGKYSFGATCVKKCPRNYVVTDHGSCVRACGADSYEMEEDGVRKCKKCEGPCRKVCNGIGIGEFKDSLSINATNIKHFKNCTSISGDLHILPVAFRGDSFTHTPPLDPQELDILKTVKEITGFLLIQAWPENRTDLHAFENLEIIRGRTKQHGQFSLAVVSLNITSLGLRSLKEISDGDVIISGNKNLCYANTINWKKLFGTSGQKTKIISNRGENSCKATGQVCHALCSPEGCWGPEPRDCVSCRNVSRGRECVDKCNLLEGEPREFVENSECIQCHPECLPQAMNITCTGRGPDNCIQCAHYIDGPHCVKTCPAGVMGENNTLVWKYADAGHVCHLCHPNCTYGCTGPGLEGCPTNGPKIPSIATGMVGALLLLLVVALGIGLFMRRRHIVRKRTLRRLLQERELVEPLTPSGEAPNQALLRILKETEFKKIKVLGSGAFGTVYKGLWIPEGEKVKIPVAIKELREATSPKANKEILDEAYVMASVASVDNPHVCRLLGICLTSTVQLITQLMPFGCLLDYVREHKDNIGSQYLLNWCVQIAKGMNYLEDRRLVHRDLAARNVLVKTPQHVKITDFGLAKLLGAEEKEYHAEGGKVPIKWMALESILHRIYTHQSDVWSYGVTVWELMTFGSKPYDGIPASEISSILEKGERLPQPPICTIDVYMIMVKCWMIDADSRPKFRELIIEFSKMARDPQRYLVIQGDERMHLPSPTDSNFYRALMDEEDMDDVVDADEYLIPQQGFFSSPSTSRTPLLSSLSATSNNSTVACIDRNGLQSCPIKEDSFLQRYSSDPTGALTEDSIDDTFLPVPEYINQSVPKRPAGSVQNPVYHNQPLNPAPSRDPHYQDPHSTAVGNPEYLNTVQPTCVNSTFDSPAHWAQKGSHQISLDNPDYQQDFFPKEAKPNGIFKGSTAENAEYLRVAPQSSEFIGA
In short: as §1

[3] = system: A431 cells; assay: Cellular proliferation (Alamar Blue) assay, A431; conditions: Homo sapiens, A-431; A431 cells, Alamar Blue, 72 hr; read-out: A431 IC50
[4] = biological target: HER2 (A775_G776insYVMA) expressing Ba/F3 stable cell line (Homo sapiens, UniProt P04626, DUP772-775, cells depend on it); assay: Cellular proliferation (Alamar Blue) assay, HER2 A775_G776insYVMA Ba/F3; conditions: 72 hr, read-out: YVMA IC50
Chain of HER2 (A775_G776insYVMA) expressing Ba/F3 stable cell line (P04626 with tags, fused parts or gaps DUP772-775): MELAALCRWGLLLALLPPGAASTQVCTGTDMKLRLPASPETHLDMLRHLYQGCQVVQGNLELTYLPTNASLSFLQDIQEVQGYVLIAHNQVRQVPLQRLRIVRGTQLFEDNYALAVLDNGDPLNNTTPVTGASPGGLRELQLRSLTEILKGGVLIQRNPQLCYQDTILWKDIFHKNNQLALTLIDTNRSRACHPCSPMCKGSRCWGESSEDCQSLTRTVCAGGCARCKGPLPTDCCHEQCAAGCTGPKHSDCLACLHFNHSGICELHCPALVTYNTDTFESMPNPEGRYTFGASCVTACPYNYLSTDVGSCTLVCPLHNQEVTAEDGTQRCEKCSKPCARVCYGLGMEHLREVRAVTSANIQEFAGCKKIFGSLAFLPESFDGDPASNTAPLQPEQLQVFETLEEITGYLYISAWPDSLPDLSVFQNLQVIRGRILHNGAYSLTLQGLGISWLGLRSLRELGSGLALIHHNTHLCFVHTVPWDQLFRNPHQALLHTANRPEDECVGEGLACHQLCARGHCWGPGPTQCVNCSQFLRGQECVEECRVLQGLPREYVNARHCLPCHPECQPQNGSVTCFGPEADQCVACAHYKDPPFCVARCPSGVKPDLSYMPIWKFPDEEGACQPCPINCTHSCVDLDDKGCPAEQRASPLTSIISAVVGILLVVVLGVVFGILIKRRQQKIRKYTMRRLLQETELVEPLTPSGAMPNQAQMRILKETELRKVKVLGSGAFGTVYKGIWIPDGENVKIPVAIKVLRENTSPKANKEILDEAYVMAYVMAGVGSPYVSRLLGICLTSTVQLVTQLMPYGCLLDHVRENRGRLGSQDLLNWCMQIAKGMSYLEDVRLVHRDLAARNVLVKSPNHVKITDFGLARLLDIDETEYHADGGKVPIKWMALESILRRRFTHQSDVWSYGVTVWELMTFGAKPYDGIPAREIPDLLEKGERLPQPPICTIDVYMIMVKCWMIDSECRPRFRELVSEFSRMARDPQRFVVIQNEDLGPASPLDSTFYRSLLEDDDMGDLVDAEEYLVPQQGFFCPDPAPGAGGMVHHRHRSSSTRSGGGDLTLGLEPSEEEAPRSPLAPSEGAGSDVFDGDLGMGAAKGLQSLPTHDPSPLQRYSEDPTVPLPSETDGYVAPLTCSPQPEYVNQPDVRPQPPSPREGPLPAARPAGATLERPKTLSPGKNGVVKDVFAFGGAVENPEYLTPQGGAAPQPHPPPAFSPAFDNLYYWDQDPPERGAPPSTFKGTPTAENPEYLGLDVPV
In short: as §1

Chain of EGFR(D770_N771insSVD) expressing Ba/F3 stable cell line (P00533 with tags, fused parts or gaps DUP768-770): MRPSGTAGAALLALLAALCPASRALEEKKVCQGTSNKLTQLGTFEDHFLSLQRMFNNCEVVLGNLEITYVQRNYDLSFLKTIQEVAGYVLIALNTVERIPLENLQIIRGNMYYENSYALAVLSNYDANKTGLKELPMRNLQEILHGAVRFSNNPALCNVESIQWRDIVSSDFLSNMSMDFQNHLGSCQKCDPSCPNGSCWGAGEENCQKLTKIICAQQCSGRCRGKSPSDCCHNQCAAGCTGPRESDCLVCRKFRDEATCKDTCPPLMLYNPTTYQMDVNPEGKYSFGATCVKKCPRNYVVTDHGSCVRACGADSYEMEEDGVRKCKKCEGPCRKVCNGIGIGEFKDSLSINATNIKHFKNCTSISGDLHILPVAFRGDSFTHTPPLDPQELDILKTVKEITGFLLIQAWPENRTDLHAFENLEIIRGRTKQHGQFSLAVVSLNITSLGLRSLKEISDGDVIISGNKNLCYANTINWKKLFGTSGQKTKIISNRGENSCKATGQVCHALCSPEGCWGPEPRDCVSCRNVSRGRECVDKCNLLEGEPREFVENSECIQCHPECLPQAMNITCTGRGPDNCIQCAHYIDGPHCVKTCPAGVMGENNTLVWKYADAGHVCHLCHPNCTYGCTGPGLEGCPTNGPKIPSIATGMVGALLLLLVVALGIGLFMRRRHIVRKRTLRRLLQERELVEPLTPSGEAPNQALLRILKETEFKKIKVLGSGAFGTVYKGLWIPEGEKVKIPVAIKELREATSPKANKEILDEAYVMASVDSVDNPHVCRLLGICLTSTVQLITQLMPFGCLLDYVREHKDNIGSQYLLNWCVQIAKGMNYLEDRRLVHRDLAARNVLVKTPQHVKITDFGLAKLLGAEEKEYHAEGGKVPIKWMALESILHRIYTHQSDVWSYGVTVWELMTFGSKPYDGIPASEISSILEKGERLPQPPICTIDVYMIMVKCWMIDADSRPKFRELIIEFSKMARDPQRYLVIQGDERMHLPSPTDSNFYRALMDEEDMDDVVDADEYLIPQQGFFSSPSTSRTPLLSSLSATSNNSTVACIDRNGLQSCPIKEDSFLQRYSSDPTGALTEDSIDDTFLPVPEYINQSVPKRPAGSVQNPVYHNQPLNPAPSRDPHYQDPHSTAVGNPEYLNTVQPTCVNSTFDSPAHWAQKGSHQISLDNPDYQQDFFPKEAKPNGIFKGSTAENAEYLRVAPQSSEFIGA

C=CC(=O)Nc1cccc(Nc2nc(Nc3cnn(C)c3)ncc2NS(=O)(=O)c2ccccc2)c1 [Compound 29, N-(3-((2-((1-methyl-1H-pyrazol-4-yl)amino)-5-(phenylsulfonamido)pyrimidin-4-yl)amino)phenyl)acrylamide]
GI50 [1]: > 10000 nM | GI50 [2]: > 10000 nM | IC50 [3]: > 10000 nM | GI50 [4]: > 10000 nM

C=CC(=O)Nc1ccc(F)c(Nc2nc(Nc3ccn(C)n3)ncc2Cl)c1 [Compound 30, N-(3-((5-chloro-2-((1-methyl-1H-pyrazol-3-yl)amino)pyrimidin-4-yl)amino)-4-fluorophenyl)acrylamide]
GI50 [1]: > 10000 nM | GI50 [2]: 9630 nM | IC50 [3]: > 10000 nM | GI50 [4]: 2640 nM

C=CC(=O)Nc1ccc(F)c(Nc2nc(Nc3ccnn3C)ncc2Cl)c1 [Compound 31, N-(3-((5-chloro-2-((1-methyl-1H-pyrazol-5-yl)amino)pyrimidin-4-yl)amino)-4-fluorophenyl)acrylamide]
GI50 [1]: 9960 nM | GI50 [2]: 9870 nM | IC50 [3]: 9800 nM | GI50 [4]: 5180 nM

C=CC(=O)Nc1cccc(Nc2nc(Nc3cnn(C)c3)ncc2NCc2ccccc2)c1 [Compound 32, N-(3-((5-(benzylamino)-2-((1-methyl-1H-pyrazol-4-yl)amino)pyrimidin-4-yl)amino)phenyl)acrylamide]
GI50 [1]: 824 nM | GI50 [2]: 885 nM | IC50 [3]: > 10000 nM | GI50 [4]: 1610 nM

CN(C)C/C=C/C(=O)Nc1cccc(Nc2nc(Nc3cnn(C)c3)ncc2NCc2ccccc2)c1 [Compound 33, (E)-N-(3-((5-(benzylamino)-2-((1-methyl-1H-pyrazol-4-yl)amino)pyrimidin-4-yl)amino)phenyl)-4-(dimethylamino)but-2-enamide]
GI50 [1]: 2980 nM | GI50 [2]: 4070 nM | IC50 [3]: 4010 nM | GI50 [4]: 3030 nM

CC(NC(=O)c1cnc(Nc2cnn(C)c2)nc1Nc1cccc(NC(=O)/C=C/CN(C)C)c1)c1ccccc1 (stereo not drawn) [Compound 35, (E)-4-((3-(4-(dimethylamino)but-2-enamido)phenyl)amino)-2-((1-methyl-1H-pyrazol-4-yl)amino)-N-(1-phenylethyl)pyrimidine-5-carboxamide]
GI50 [1]: > 10000 nM | GI50 [2]: > 10000 nM | IC50 [3]: > 10000 nM | GI50 [4]: > 10000 nM

C=CC(=O)Nc1ccc(F)c(Nc2nc(Nc3cnn(C)c3)ncc2C(F)(F)F)c1 [Compound 36, N-(4-fluoro-3-((2-((1-methyl-1H-pyrazol-4-yl)amino)-5-(trifluoromethyl)pyrimidin-4-yl)amino)phenyl)acrylamide]
GI50 [1]: 357 nM | GI50 [2]: 332 nM | IC50 [3]: 8150 nM | GI50 [4]: 416 nM

C=CC(=O)Nc1cccc(Nc2nc(Nc3cnn(C)c3)ncc2C(C)N(Cc2ccccc2)C(C)=O)c1 (stereo not drawn) [Compound 47, N-(3-((5-(1-(N-benzylacetamido)ethyl)-2-((1-methyl-1H-pyrazol-4-yl)amino)pyrimidin-4-yl)amino)phenyl)acrylamide]
GI50 [1]: 8850 nM | GI50 [2]: 7080 nM | IC50 [3]: > 10000 nM | GI50 [4]: > 10000 nM

C=CC(=O)Nc1cccc(Nc2nc(Nc3cnn(C)c3)ncc2CN(Cc2ccccc2)C(C)=O)c1 [Compound 48, N-(3-((5-((N-benzylacetamido)methyl)-2-((1-methyl-1H-pyrazol-4-yl)amino)pyrimidin-4-yl)amino)phenyl)acrylamide]
GI50 [1]: 8800 nM | GI50 [2]: > 10000 nM | IC50 [3]: > 10000 nM | GI50 [4]: > 10000 nM

C=CC(=O)Nc1ccc(F)c(Nc2nc(Nc3cnn(C)c3)ncc2NC(=O)c2ccccc2)c1 [Compound 50, N-(4-((5-acrylamido-2-fluorophenyl)amino)-2-((1-methyl-1H-pyrazol-4-yl)amino)pyrimidin-5-yl)benzamide]
GI50 [1]: 1730 nM | GI50 [2]: 1470 nM | IC50 [3]: > 10000 nM | GI50 [4]: 8620 nM

C=CC(=O)Nc1ccc(F)c(Nc2nc(Nc3cnn(C)c3)ncc2NS(=O)(=O)c2ccccc2)c1 [Compound 51, N-(4-fluoro-3-((2-((1-methyl-1H-pyrazol-4-yl)amino)-5-(phenylsulfonamido)pyrimidin-4-yl)amino)phenyl)acrylamide]
GI50 [1]: > 10000 nM | GI50 [2]: > 10000 nM | IC50 [3]: > 10000 nM | GI50 [4]: > 10000 nM

C=CC(=O)Nc1ccc(F)c(Nc2nc(Nc3cnn(C)c3)ncc2-c2ccc(N3CCOCC3)nc2)c1 [Compound 55, N-[4-fluoro-3-({2-[(1-methyl-1H-pyrazol-4-yl)amino]-5-[6-(morpholin-4-yl)pyridin-3-yl]pyrimidin-4-yl}amino)phenyl] prop-2-enamide]
GI50 [1]: 945 nM | GI50 [2]: 492 nM | IC50 [3]: > 10000 nM | GI50 [4]: 1870 nM

C=CC(=O)Nc1ccc(F)c(Nc2nc(Nc3cnn(C)c3)ncc2-c2cccc(NC(C)=O)c2)c1 [Compound 59, N-(3-((5-(3-acetamidophenyl)-2-((1-methyl-1H-pyrazol-4-yl)amino)pyrimidin-4-yl)amino)-4-fluorophenyl)acrylamide]
GI50 [1]: > 10000 nM | GI50 [2]: > 10000 nM | IC50 [3]: > 10000 nM | GI50 [4]: ≥ 10000 nM

C=CC(=O)Nc1ccc(F)c(Nc2nc(Nc3cnn(C)c3)ncc2-c2cccc(C(=O)NC)c2)c1 [Compound 60, 3-(4-((5-acrylamido-2-fluorophenyl)amino)-2-((1-methyl-1H-pyrazol-4-yl)amino)pyrimidin-5-yl)-N-methylbenzamide]
GI50 [1]: 7940 nM | GI50 [2]: 7650 nM | IC50 [3]: > 10000 nM | GI50 [4]: 6580 nM

C=CC(=O)Nc1ccc(F)c(Nc2nc(Nc3cnn(C)c3)ncc2-c2ccc(C#N)cc2)c1 [Compound 62, N-(3-((5-(4-cyanophenyl)-2-((1-methyl-1H-pyrazol-4-yl)amino)pyrimidin-4-yl)amino)-4-fluorophenyl)acrylamide]
GI50 [1]: 323 nM | GI50 [2]: 307 nM | IC50 [3]: > 10000 nM | GI50 [4]: 2590 nM

C=CC(=O)Nc1ccc(F)c(Nc2nc(Nc3cnn(C)c3)ncc2-c2ccc(C(C)(C)C)cc2)c1 [Compound 76, N-(3-((5-(4-(tert-butyl)phenyl)-2-((1-methyl-1H-pyrazol-4-yl)amino)pyrimidin-4-yl)amino)-4-fluorophenyl)acrylamide trifluoroacetate]
GI50 [1]: 265 nM | GI50 [2]: 308 nM | IC50 [3]: 156 nM | GI50 [4]: 3150 nM

C=CC(=O)Nc1ccc(F)c(Nc2nc(Nc3cnn(C)c3)ncc2-c2ccc3c(ccn3C)c2)c1 [Compound 77, N-(4-fluoro-3-((5-(1-methyl-1H-indol-5-yl)-2-((1-methyl-1H-pyrazol-4-yl)amino)pyrimidin-4-yl)amino)phenyl)acrylamide trifluoroacetate]
GI50 [1]: 299 nM | GI50 [2]: 774 nM | IC50 [3]: 1030 nM | GI50 [4]: 2750 nM

C=CC(=O)Nc1ccc(F)c(Nc2nc(Nc3cnn(C)c3)ncc2-c2cccnc2OC)c1 [Compound 79, N-(4-fluoro-3-((5-(2-methoxypyridin-3-yl)-2-((1-methyl-1H-pyrazol-4-yl)amino)pyrimidin-4-yl)amino)phenyl)acrylamide]
GI50 [1]: 934 nM | GI50 [2]: 887 nM | IC50 [3]: > 10000 nM | GI50 [4]: 896 nM

C=CC(=O)Nc1ccc(F)c(Nc2nc(Nc3cnn(C)c3)ncc2-c2ccc(OC)nc2)c1 [Compound 86, N-(4-fluoro-3-((5-(6-methoxypyridin-3-yl)-2-((1-methyl-1H-pyrazol-4-yl)amino)pyrimidin-4-yl)amino)phenyl)acrylamide]
GI50 [1]: 36 nM | GI50 [2]: 39 nM | IC50 [3]: 49 nM | GI50 [4]: 185 nM

C=CC(=O)Nc1ccc(F)c(Nc2nc(Nc3cnn(C)c3)ncc2-c2cccc(OC(F)(F)F)c2)c1 [Compound 96, N-(4-fluoro-3-((2-((1-methyl-1H-pyrazol-4-yl)amino)-5-(3-(trifluoromethoxy)phenyl)pyrimidin-4-yl)amino)phenyl)acrylamide trifluoroacetate]
GI50 [1]: 345 nM | GI50 [2]: 790 nM | IC50 [3]: 1080 nM | GI50 [4]: 7730 nM

C=CC(=O)Nc1ccc(F)c(Nc2nc(Nc3cnn(C)c3)ncc2-c2ccc3[nH]ccc3c2)c1 [Compound 97, N-(4-fluoro-3-{[5-(1H-indol-5-yl)-2-[(1-methyl-1H-pyrazol-4-yl)amino]pyrimidin-4-yl]amino}phenyl)prop-2-enamide]
GI50 [1]: 546 nM | GI50 [2]: 862 nM | IC50 [3]: 586 nM | GI50 [4]: 403 nM

C=CC(=O)Nc1ccc(F)c(Nc2nc(Nc3cnn(C)c3)ncc2-c2ccc(-c3ccccc3)cc2)c1 [Compound 127, N-(3-((5-([1,1′-biphenyl]-4-yl)-2-((1-methyl-1H-pyrazol-4-yl)amino)pyrimidin-4-yl)amino)-4-fluorophenyl)acrylamide]
GI50 [1]: 971 nM | GI50 [2]: 565 nM | IC50 [3]: 258 nM | GI50 [4]: 5280 nM

C=CC(=O)Nc1ccc(F)c(Nc2nc(Nc3cnn(C)c3)ncc2-c2ccc(C3CC3)cc2)c1 [Compound 128, N-(3-((5-(4-cyclopropylphenyl)-2-((1-methyl-1H-pyrazol-4-yl)amino)pyrimidin-4-yl)amino)-4-fluorophenyl)acrylamide trifluoroacetate]
GI50 [1]: 101 nM | GI50 [2]: 114 nM | IC50 [3]: 64 nM | GI50 [4]: 654 nM

C=CC(=O)Nc1ccc(F)c(Nc2nc(Nc3cnn(C)c3)ncc2-c2ccc(CC(F)(F)F)cc2)c1 [Compound 130, N-(4-fluoro-3-((2-((1-methyl-1H-pyrazol-4-yl)amino)-5-(4-(2,2,2-trifluoroethyl)phenyl)pyrimidin-4-yl)amino)phenyl)acrylamide trifluoroacetate]
GI50 [1]: 26 nM | GI50 [2]: 27 nM | IC50 [3]: 8 nM | GI50 [4]: 83 nM
